Experimental data from patent publication US6352982B1, “4,1-benzoxazepines, their analogues, and their use as somatostatin agonists” (Takeda Chemical Industries, Ltd., priority 1997, dated 2002).
Where a name gives a salt, the structure may show the parent alone.

Experiments:
[1] = biological target: T1, human somatostatin receptor SSTR2 (Homo sapiens, UniProt P30874); experiment: Inhibition of forskolin-stimulated accumulation of cAMP in receptor expression CHO cells; type: cell-based; conditions: forskolin 10 μM, 37° C. for 30 minutes, read-out: Inhibitory effect on forskolin-stimulated accumulation of cAMP (ED50 value) SSTR2
T1 construct: expressed in transfected cells; host or cells: CHO (dhfr-) cells, strain SSTR2-HS5-9
T1 sequence (P30874 whole entry): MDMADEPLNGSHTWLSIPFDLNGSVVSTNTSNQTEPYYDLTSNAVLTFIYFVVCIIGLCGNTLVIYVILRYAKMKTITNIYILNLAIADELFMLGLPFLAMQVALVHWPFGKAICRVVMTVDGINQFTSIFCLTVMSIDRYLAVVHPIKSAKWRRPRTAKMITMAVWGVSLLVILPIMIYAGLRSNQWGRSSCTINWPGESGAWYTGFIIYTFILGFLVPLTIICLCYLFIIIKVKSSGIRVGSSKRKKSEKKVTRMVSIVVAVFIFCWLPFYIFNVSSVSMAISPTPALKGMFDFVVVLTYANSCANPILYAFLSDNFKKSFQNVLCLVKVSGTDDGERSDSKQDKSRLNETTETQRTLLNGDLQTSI
Method: (§1) For measurement of the accumulated intracellular adenosine 3′,5′-monophosphate (cAMP), the human somatostatin receptor expression cell strains, SSTR2-HS5-9, SSTR-3-15-19, SSTR4-1-2 and SSTR5-32-4, mentioned in Reference Examples 2-3, 3-3,4-3 and 5-3, respectively, were proliferated in 24-well plate until they were confluent. Said cells were washed twice with 1 ml of Medium A [Dulbecco's Modified Eagle Medium (DMEM), 20 mM 2-(4-(2-hydroxyethyl)-1-piperazinyl]ethanesulfonic acid (HEPES) (pH 7.5), 0.2% bovine serum albumin and 0.2 mM 3-isobutyl-1-methylxanthine (IBMX)]. The medium A was placed in wells each in quantity of 400 μl and incubated at 37° C. for an hour. A solution of the compounds of Example 5 and Example 102 (solution obtained by diluting with Medium A to the 10-fold concentration of the final concentration) and a forskolin solution (final concentration 10 μM) were placed in wells each in quantities of 50 μl and 50 μl, respectively, and incubated at 37° C. for 30 minutes. The cells were washed twice with 1 ml of Medium A. Medium A (500 μl) and 100 μl of a 20% aqueous perchloric acid solution were placed in each well and left standing for 20 minutes at 4° C. to lyse the cells. The lyzate was placed in an Eppendorf's tube and centrifuged (15.000 rpm, for 10 minutes). The supernatant was placed in another Eppendorf's tube in quantity of 500 μl and neutralized with 60 mM of a HEPES aqueous solution containing 1.5 M of potassium chloride. The content of cAMP contained in this extract was determined by the Amersham kit (cAMP EIA system).

[2] = biological target: T2, human somatostatin receptor SSTR3 (Homo sapiens, UniProt P32745); experiment: as above; type: cell-based; conditions: forskolin 10 μM, 37° C. for 30 minutes, read-out: Inhibitory effect on forskolin-stimulated accumulation of cAMP (ED50 value) SSTR3
T2 construct: expressed in transfected cells; host or cells: CHO (dhfr-) cells, strain SSTR3-15-19
T2 sequence (P32745 whole entry): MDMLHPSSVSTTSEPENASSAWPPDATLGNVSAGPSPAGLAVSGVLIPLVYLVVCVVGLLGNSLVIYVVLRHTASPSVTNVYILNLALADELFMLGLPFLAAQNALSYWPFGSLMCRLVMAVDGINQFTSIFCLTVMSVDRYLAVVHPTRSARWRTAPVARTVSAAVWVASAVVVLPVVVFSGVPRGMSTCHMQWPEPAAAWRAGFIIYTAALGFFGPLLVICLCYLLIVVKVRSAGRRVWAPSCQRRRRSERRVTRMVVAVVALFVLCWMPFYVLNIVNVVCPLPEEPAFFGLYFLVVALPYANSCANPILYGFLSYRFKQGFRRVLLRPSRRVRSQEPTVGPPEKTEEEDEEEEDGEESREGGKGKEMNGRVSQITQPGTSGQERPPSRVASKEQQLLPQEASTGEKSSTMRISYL
Method: as §1

[3] = biological target: T3, human somatostatin receptor SSTR4 (Homo sapiens, UniProt P31391); experiment: as above; type: cell-based; conditions: forskolin 10 μM, 37° C. for 30 minutes, read-out: Inhibitory effect on forskolin-stimulated accumulation of cAMP (ED50 value) SSTR4
T3 construct: expressed in transfected cells; host or cells: CHO (dhfr-) cells, strain SSTR4-1-2
T3 sequence (P31391 whole entry): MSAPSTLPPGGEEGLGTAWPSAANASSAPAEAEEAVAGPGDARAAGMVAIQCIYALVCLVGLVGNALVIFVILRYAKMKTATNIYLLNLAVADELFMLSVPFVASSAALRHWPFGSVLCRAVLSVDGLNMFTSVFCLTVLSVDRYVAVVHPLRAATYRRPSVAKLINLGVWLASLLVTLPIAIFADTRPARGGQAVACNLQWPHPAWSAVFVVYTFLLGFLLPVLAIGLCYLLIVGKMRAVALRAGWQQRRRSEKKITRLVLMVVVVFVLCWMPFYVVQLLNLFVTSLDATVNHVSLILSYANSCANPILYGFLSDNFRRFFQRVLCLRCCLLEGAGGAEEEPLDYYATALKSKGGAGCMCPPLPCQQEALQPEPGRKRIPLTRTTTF
Method: as §1

[4] = biological target: T4, human somatostatin receptor SSTR5 (Homo sapiens, UniProt P35346); experiment: as above; type: cell-based; conditions: forskolin 10 μM, 37° C. for 30 minutes, read-out: Inhibitory effect on forskolin-stimulated accumulation of cAMP (ED50 value) SSTR5
T4 construct: expressed in transfected cells; host or cells: CHO (dhfr-) cells, strain SSTR5-3-2-4 (also printed SSTR5-32-4)
T4 sequence (P35346 whole entry): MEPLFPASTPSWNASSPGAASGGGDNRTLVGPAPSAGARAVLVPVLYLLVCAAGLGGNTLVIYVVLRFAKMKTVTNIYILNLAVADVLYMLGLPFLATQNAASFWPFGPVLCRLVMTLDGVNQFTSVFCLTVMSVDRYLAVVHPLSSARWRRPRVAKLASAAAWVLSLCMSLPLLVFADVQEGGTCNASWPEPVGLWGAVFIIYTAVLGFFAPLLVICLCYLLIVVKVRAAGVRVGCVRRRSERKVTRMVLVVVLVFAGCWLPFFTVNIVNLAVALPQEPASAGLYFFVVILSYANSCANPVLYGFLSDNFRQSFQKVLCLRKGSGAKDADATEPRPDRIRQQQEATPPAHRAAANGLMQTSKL
Method: as §1

[5] = biological target: T5, human somatostatin receptor SSTR1 (Homo sapiens, UniProt P30872); experiment: Binding inhibition of 125I-somatostatin, CHO cell membrane fraction; conditions: 125I-somatostatin binding, 25° C. for 60 minutes, read-out: Activities for human somatostatin receptor (IC50 value) SSTR1
T5 construct: expressed in transfected cells; host or cells: CHO (dhfr-) cells, strain SSTR1-8-3
T5 sequence (P30872 whole entry): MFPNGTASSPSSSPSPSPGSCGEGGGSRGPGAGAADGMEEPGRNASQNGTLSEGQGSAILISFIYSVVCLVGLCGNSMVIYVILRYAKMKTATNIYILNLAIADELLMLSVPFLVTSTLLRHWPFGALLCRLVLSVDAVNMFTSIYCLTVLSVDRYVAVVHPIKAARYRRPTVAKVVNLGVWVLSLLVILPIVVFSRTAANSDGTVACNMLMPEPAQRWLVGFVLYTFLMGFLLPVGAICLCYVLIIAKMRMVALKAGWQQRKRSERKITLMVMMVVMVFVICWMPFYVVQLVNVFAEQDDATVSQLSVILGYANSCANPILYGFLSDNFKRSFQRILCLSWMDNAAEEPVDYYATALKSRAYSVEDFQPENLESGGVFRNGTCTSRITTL
Method: A human somatostatin receptor expression CHO cell strain, SSTR1-8-3, SSTR2-HS5-9, SSTR3-15-19, SSTR4-1-2 or SSTR5-32-4 (10^9), was suspended in a phosphate buffered saline containing 5mM of EDTA (PBS-EDTA). The suspension was centrifuged. To the cell pellet was added 10 ml of a homogenation buffer solution for cells (10 mM NaHCO3, 5 mM EDTA, pH=7.5). The mixture was homogenized by a Politron homogenizer and centrifuged at 400×g for 15 minutes. The supernatant obtained was farther centrifuged at 100,000×g for an hour to obtain a precipitate of the membrane fraction. The precipitate was suspended in 2 ml of a buffer solution for assay ([…], 0.1% of BSA (bovine serum albumin) and […], 1 μ/ml of pepstatin, 20 μg/ml of leupeptin, 10 μg/ml of phosphoramide, pH=7.5). The suspension was centrifuged at […] for an hour. The membrane fraction recovered as precipitate was suspended again in 20 ml of buffer solution for assay. The suspension was placed in tubes and stored at −80° C. The suspension was thawed when used, and used at every use.
The membrane fraction prepared in Example 1 was diluted with a buffer solution for assay to adjust the concentration to 3 μg/ml. The diluate was placed in tubes each in quantity of 173 μl. To this were simultaneously added 2 μl of a solution of a compound in DMSO and 25μl of a 200pM radioisotope-labeled somatostatin (^125I-somatostatin: Amersham) solution. For measurement of the maximum binding, a reaction mixture added with 2 μl of DMSO and 25μl of a 200pM ^125I-somatostatin solution was prepared. For measurement of non-specific binding, a reaction mixture added with 2 μl of a 100 μM somatostatin solution diluted in DMSO and 25 μl of a 200pM ^125I-somatostatin solution was prepared at the same time. The mixtures were allowed to react at 25° C. for 60 minutes. Then, the reaction mixture was filtered by aspiration using a GF/B glass fiber filter paper (Whatman) treated with polyethylenimine. After filtration, the radioactivity of 125I-somatostatin remaining on the filter paper was measured by a γ-counter.
The binding rate (%) of each compound was calculated by the formula: […]
(where PBM: Percent maximum Binding, B: radioactivity when a compound was added, Bo: maximum binding radioactivity, NSB: non-specific binding radioactivity). The binding rates were calculated by changing the concentrations of the compound to obtain the 50% inhibiting concentration of the compound (IC50 value) by the Hil l plots.
The activities (IC50 value, μM) of the compounds for each human somatostatin receptor obtained by the above method are shown in the following Table 5.

Row | Compound | EC50 [1] [nM] | EC50 [2] [nM] | EC50 [3] [nM] | EC50 [4] [nM] | IC50 [5] [nM]
1 | NCc1cccc(C2OC(CC(=O)NCc3ccccc3F)C(=O)N(Cc3ccc(-c4ccccc4)cc3)c3ccc(Cl)cc32)c1 (stereo not drawn) [Example 5, 3,5-Trans-N-(2-fluorobenzyl)-5-(3-aminomethylphenyl)-1-(4-biphenylmethyl)-7-chloro-2-oxo-1,2,3,5-tetrahydro-4,1-benzoxazepine-3-acetamide•monohydrochloride] | 300 | 2 | 200 | 0.7 | 
2 | NCc1cccc(C2OC(CC(=O)NCc3ccccc3F)C(=O)N(Cc3ccc(O)cc3)c3ccc(Cl)cc32)c1 (stereo not drawn) [Example 102, 3,5-Trans-N-(2-fluorobenzyl)-5-(3-aminomethylphenyl)-7-chloro-1-(4-hydroxybenzyl)-2-oxo-1,2,3,5-tetrahydro-4,1-benzoxazepine-3-acetamide•monohydrochloride] | 200 | 0.3 | 100 | 0.3 | > 1000
